Counter-ions that a name gives are not always drawn. Values belong to the compound of their own block, whether it stands above or below them.
Assays:
[1] = tested on: human renal cancer cells (Caki-2); assay: Anti-proliferative effect on human renal cancer cells, sulforhodamine B method; type: cell-based; settings: Caki-2 cells
[2] = tested on: human lymphoma cells (U937); assay: Cell proliferation suppression activity on human lymphoma cells, MTT assay; type: cell-based; settings: applied dose 10 nM
Method: [The source words this procedure for another cell line and reports this cell line under the same test.] (§1) Anti-proliferative effect of test compounds on human chronic myelogenous leukemia cells (KU812) was determined by an MTT assay in accordance with the method described in Singh A K et al. (Cancer Lett. 1996 Oct. 1; 107(1): 109-15). To describe more specifically, KU812 cells were seeded on RPMI 1640 medium containing 10% fetal bovine serum of a 96-well microplate, cultured at 37° C. for 24 hours in the presence of a 5% carbon dioxide gas (CO2). Thereafter, a test compound was added to the wells and the cells were cultured for a further 5 days. After the incubation, 10 μl of 5 mg/mL MTT ([…]) was added to the wells. After the cells were cultured for 4 hours, 100 μl of 0.01N HCl containing 10% SDS (sodium dodecyl sulfate) was added to the wells, which was further cultured overnight. Subsequently, OD was measured at a measurement wavelength of 570 nm and a reference wavelength of 690 nm to obtain the difference (A) in OD. Furthermore, OD of a control well (containing no cells) was measured at a measurement wavelength of 570 nm and a reference wavelength of 690 nm to obtain the difference (B) in OD. The difference (A−B) was regarded as the cell proliferation activity of each of the wells. […]

[3] = tested on: human acute myelogenous leukemia cells (KG-1); assay: Anti-proliferative effect on human acute myelogenous leukemia cells, MTT assay; type: cell-based; settings: KG-1 cells
Method: [The source words this procedure for another cell line and reports this cell line under the same test.] as §1

[4] = tested on: human lung cancer cells (EBC-1); assay: Anti-proliferative effect on human lung cancer cells, sulforhodamine B method; type: cell-based; settings: EBC-1 cells
Excerpt: (§2) Anti-proliferative effect of test compounds on human hepatic cancer cells (HuH-7), human lung cancer cells (EBC-1), human colorectal cancer cells (HCT116), human prostatic cancer cells (22Rv1), human pancreatic cancer cells (MIA PaCa-2), human stomach cancer cells (MKN45), human breast cancer cells (ZR-75-1) was checked by a sulforhodamine B method in accordance with Skehan P et al. (J. Natl. Cancer Inst. 1990 Jul. 4; 82(13): 1107-12). Explanation will be made taking HuH-7 cells as an example.
(§3) HuH-7 cells were seeded on DMEM medium (Dulbeco's modified Eagle Medium) containing 10% fetal bovine serum of a 96-well microplate and cultured at 37° C. for 24 hours in the presence of 5% carbon dioxide gas (CO2). Thereafter, a test compound was added to the wells and the cells were cultured for a further 5 days. […]
(§4) To each of the wells, a 1% aqueous acetic acid solution containing 0.4% sulforhodamine B was added and the wells were allowed to stand still at room temperature for 20 to 30 minutes. […] Subsequently, OD (optical density) was measured at a measurement wavelength of 492 nm and a reference wavelength of 690 nm to obtain the difference (A) in OD thus measured. Furthermore, the OD of a control well (containing no cells) was measured at a measurement wavelength of 492 nm and a reference wavelength of 690 nm to obtain the difference (B) in OD. […]

[5] = tested on: human colorectal cancer cells (HCT116); assay: Anti-proliferative effect on human colorectal cancer cells, sulforhodamine B method; type: cell-based; settings: HCT-116
Excerpt: as §2, §3, §4

[6] = tested on: human breast cancer cells (ZR-75-1); assay: Anti-proliferative effect on human breast cancer cells, sulforhodamine B method; type: cell-based; settings: ZR-75-1 cells
Excerpt: as §2, §3, §4

[7] = tested on: human chronic myelogenous leukemia cells (KU812); assay: Anti-proliferative effect on human chronic myelogenous leukemia cells, MTT assay; type: cell-based; settings: 120 h, cultured 5 days with compound
Method: as §1

[8] = tested on: human stomach cancer cells (MKN45); assay: Anti-proliferative effect on human stomach cancer cells, sulforhodamine B method; type: cell-based; settings: MKN-45
Excerpt: as §2, §3, §4

[9] = tested on: human multiple myeloma cells (IM-9); assay: Anti-proliferative effect on human multiple myeloma cells, MTT assay; type: cell-based; settings: IM-9 cells
Method: [The source words this procedure for another cell line and reports this cell line under the same test.] as §1

[10] = tested on: Human hepatic cancer cells HuH-7; assay: Anti-tumor effect on HuH-7 cells transplanted into SCID mice; type: in vivo; settings: 100 mg/kg/day orally once a day for 9 days, HuH-7 tumor in SCID mice
Method: Pharmacological Test 2 Anti-Cancer Effect […] on Hepatic Cancer Cells HuH-7
Human hepatic cancer cells HuH-7 were transplanted into SCID mice (a group of 6 female mice). Anti-tumor effect of test compounds according to the present invention was checked. To describe more specifically, the cancer cells were cultured in advance and a cell suspension solution containing the cancer cells in a concentration of 2.5×10^7 cells/mL was prepared. Then, 0.2 mL of the cell suspension solution was injected into the right axillary region of each of the mice to transplant the cancer cells. In this manner, cancer-bearing mice were prepared. […] Next day after completion of administration, the volume of a tumor was measured. The ratio in volume of a tumor at the time of grouping relative to that measured next day after completion of administration was calculated to obtain a relative tumor volume of each group. Then, the ratio (T/C %) in relative tumor volume of […] (administrated with a test compound) was calculated and used as an index of the effect. Relative tumor volume=tumor volume measured on the next day of completion of administration/tumor volume measured at the time of grouping (T/C %)=(an average value of relative tumor volume of test compound administration group)/(an average value of relative tumor volume of a control group)×100

[11] = tested on: human Burkitt's lymphoma cells (Daudi); assay: Cell proliferation suppression activity on human Burkitt's lymphoma cells, MTT assay; type: cell-based; settings: applied dose 10 nM
Method: [The source words this procedure for another cell line and reports this cell line under the same test.] as §1

[12] = tested on: human pancreatic cancer cells (MIA PaCa-2); assay: Anti-proliferative effect on human pancreatic cancer cells, sulforhodamine B method; type: cell-based; settings: MIA PaCa-2 cells
Excerpt: as §2, §3, §4

[13] = tested on: human prostatic cancer cells (22Rv1); assay: Anti-proliferative effect on human prostatic cancer cells, sulforhodamine B method; type: cell-based; settings: 22Rv1 cells
Excerpt: as §2, §3, §4

[14] = tested on: human hepatic cancer cells (HuH-7); assay: Anti-proliferative effect on human hepatic cancer cells, sulforhodamine B method; type: cell-based; settings: 120 h, HuH-7 cells, cultured 5 days with compound
Excerpt: as §2, §3, §4

IC50 [1]: < 100 nM
IC50 [3]: < 100 nM
IC50 [4]: < 100 nM
IC50 [5]: < 100 nM
IC50 [6]: < 100 nM
IC50 [7]: < 100 nM
IC50 [8]: < 100 nM
IC50 [9]: < 100 nM
IC50 [12]: < 100 nM
IC50 [13]: < 100 nM
IC50 [14]: < 100 nM
SMILES: Cc1cc(N(C)CC(=O)N2CCN(Cc3ccc4c(c3)OCO4)CC2)ccc1Oc1ccc(NC(=O)c2ccc(C(F)(F)F)cc2)cn1 [Example 1503, N-[6-(4-{[2-(4-piperonylpiperazin-1-yl)-2-oxoethyl]methylamino}-2-methylphenoxy)pyridin-3-yl]-4-trifluoromethylbenzamide]
U937 (T/C %) cell proliferation suppression activity [2]: <70%
T/C % (relative tumor volume, test group vs control group) [10]: <50%
Daudi (T/C %) cell proliferation suppression activity [11]: <70%

IC50 [1]: < 100 nM
IC50 [3]: < 100 nM
IC50 [4]: < 100 nM
IC50 [5]: < 100 nM
IC50 [6]: < 1000 nM
IC50 [7]: < 100 nM
IC50 [8]: < 100 nM
IC50 [9]: < 100 nM
IC50 [12]: < 100 nM
IC50 [13]: < 100 nM
IC50 [14]: < 100 nM
SMILES: O=C(Nc1ccc(Oc2ccc(CCC(=O)N3CCN(Cc4ccc5c(c4)OCO5)CC3)cc2)nc1)c1ccc(C(F)(F)F)cc1 [Example 1039, N-(6-{4-[3-(4-piperonylpiperazin-1-yl)-3-oxopropyl]phenoxy}pyridin-3-yl)-4-trifluoromethylbenzamide]

melting point: 186 to 187 °C
SMILES: O=C(Nc1ccc(Oc2ccc(N3CCN(Cc4ccccc4)C3=O)cc2)nc1)c1ccc(Cl)c(Cl)c1 [Example 1182]

melting point: 182 to 183.5 °C
SMILES: Cc1cc(N2CCCN(CC(=O)N3CCN(Cc4ccc5c(c4)OCO5)CC3)C2=O)ccc1Oc1ccc(NC(=O)c2ccc(C(F)(F)F)cc2)cn1 [Example 1186]

melting point: 149 to 151 °C
SMILES: CCN(CC(=O)N1CCN(Cc2ccc3c(c2)OCO3)CC1)c1ccc(Oc2ccc(NC(=O)c3ccc(Cl)c(Cl)c3)cn2)c(F)c1 [Example 728]

melting point: 183 to 185 °C
SMILES: O=C(Nc1ccc(Oc2ccc(CCC(=O)N3CCN(c4cccnc4)CC3)cc2)c(F)c1)c1ccc(Cl)c(Cl)c1 [Example 467]

melting point: 153 to 155 °C
SMILES: O=C(Nc1ccc(Oc2ccc(CCC(=O)N3CCN(c4cccnc4)CC3)cc2)cc1)c1ccc(Cl)c(Cl)c1 [Example 466]

melting point: 177 to 178 °C
SMILES: O=C(Nc1ccc(Oc2ccc(N3CCN(C(=O)CN4CCOCC4)CC3)cc2)cc1)c1ccc(Cl)c(Cl)c1 [Example 2559]

melting point: 160 to 164 °C
SMILES: COc1cc(N(C)CC(=O)N2CCN(Cc3ccoc3)CC2)ccc1Oc1ccc(NC(=O)c2ccc(C(F)(F)F)cc2)cn1 [Example 785]

melting point: 160 to 161 °C
SMILES: CCOC(=O)c1ccc(N2CCCN(c3ccc(Oc4ccc(NC(=O)c5ccc(C(F)(F)F)cc5)cn4)c(C)c3)C2=O)cc1 [Example 1188]

melting point: 220 to 221 °C
SMILES: CN(CC(=O)N1CCN(Cc2ccc3c(c2)OCO3)CC1)c1ccc(Oc2ccc(NC(=O)c3ccc(C(F)(F)F)cc3)cn2)c(F)c1 [Example 776]

melting point: 146 to 150 °C
SMILES: O=C(Nc1ccc(Oc2ccc(C3CCN(C(=O)CN4CCOCC4)CC3)cc2)cc1)c1ccc(Cl)c(Cl)c1 (as salt: hydrochloride) [Example 2571]

melting point: 170 to 172 °C
SMILES: CCN(CC(=O)N1CCN(Cc2ccc3c(c2)OCO3)CC1)c1ccc(Oc2ccc(NC(=O)c3ccc(C(F)(F)F)cc3)cn2)c(F)c1 [Example 775]

melting point: 224.5 to 226 °C
SMILES: Br.CN(CC(=O)N1CCN(Cc2ccc3c(c2)OCO3)CC1)c1cc(F)c(Oc2ccc(C(=O)Nc3ccc(C(F)(F)F)cc3)cn2)cc1F [Example 1037, 6-(4-{[2-(4-Piperonylpiperazin-1-yl)-2-oxoethyl]methylamino}-2,5-difluorophenoxy)-N-(4-trifluoromethylphenyl)nicotinamide hydrobromide]

melting point: 158.5 to 161 °C
SMILES: Cc1cc(N(C)CC(=O)N2CCN(Cc3ccoc3)CC2)ccc1Oc1ccc(NC(=O)c2ccc(C(F)(F)F)cc2)cn1 (as salt: hydrochloride) [Example 792]

melting point: 174 to 176 °C
SMILES: CCN(CC(=O)N1CCN(Cc2ccoc2)CC1)c1ccc(Oc2ccc(NC(=O)c3ccc(C(F)(F)F)cc3)cn2)c(OC)c1 [Example 784]

melting point: 156 to 158 °C
SMILES: Cc1cc(N2CCC(CC(=O)N3CCN(Cc4ccc5c(c4)OCO5)CC3)CC2)ccc1Oc1ccc(NS(=O)(=O)c2ccc(C(F)(F)F)cc2)cn1 [Example 2703, N-[6-(4-{4-[2-(4-piperonylpiperazin-1-yl)-2-oxoethyl]piperidin-1-yl}-2-methylphenoxy)pyridin-3-yl]-4-trifluoromethylbenzenesulfonamide]

Source: patent US8236826B2, “Diarylether derivatives as antitumor agents” (Otsuka Pharmaceutical Co., Ltd., priority 2005, dated 2012)
